Reference: US7253295B2, “Chloride channel opener” (Sucampo AG, priority 2001, dated 2007)

Key:
[1] = tested on: non-transfected HEK cells; test: Whole cell patch clamp, non-transfected HEK cells (Test Example 1); type: cell-based, human; conditions: for Effect on Cl currents in non-transfected cells (in words): 1 μM; for Cl channel activity: 1 μM in 1% DMSO, non-transfected HEK cells
Text: Whole cell patch clamp method was used to assess the effect of compound 1 (13,14-dihydro-15-keto-16,16-difluoro-PGE1) and compound 2 (13,14-dihydro-15-keto-16,16-difluoro-18 (S)-methyl-PGE1) on recombinant hClC-2 chloride channel. In this example, effects of the respective compounds on Human Epithelial Kidney (HEK) cells transfected with human ClC-2 (hClC-2) were examined, and the results were compared with those on non-transfected HEK cells.
ClC-2 transfected human epithelial kidney (HEK) cells were prepared and used. HEK-293 cells obtained from American Type Culture Collection (ATCC; Manassas, Va.) were transfected with His- and T7-tagged human ClC-2 cDNA in the mammalian expression vector pcDNA3.1 (GIBCO/Invitrogen) using Lipofectamine (GIBCO/Invitrogen) for 5 h at 37° C. in serum-free medium. Cells were then resuspended in the serum-containing medium and cultured in the presence of 300 μg/ml G-418 (GIBCO/Invitrogen). The surviving cells were then expanded, tested to confirm expression of Cl- current and ClC-2 mRNA, and the cells expressing ClC-2 mRNA were frozen to store. Upon studies, the stored cells were thawed and maintained at 37° C. in 5%/95% CO2/O2 in MEM (GIBCO/Invitrogen) supplemented with 5% inactivated horse serum, 0.1 mM nonessential amino acids, 2 mM L-glutamine, 1 mM sodium pyruvate, 100 units/ml penicillin, and 100 μg/ml streptomycin sulfate.
In the whole cell patch clamp measurements, currents were elicited by voltage clamp pulses (1500 ms duration) between +40 mV and −140 mV, in 20 mV increments, from the beginning holding potential of −30 mV. Currents were measured 50-100 ms after start of the pulse. The external solution was normal Tyrode solution containing 135 mM NaCl, 1.8 mM CaCl2, 1 mM MgCl2, 5.4 mM KCl, 10 mM glucose, and 10 mM HEPES (pH 7.35). The pipette solution was 130 mM CsCl, 1 mM MgCl2, 5 mM EGTA, and 10 mM HEPES (pH 7.35); also present in the pipette was 1 mM ATP—Mg^2+ (pH 7.4).
Pipettes were prepared from borosilicate glass and pulled by a two stage Narashige puller to give 1-1.5 MΩ resistance. Data were acquired with Axopatch CV-4 headstage with Digidata 1200 digitizer and Axopatch 1D amplifier. Data were analyzed using pClamp 6.04 (Axon Instruments, Foster City, Calif.), Lotus 123 (IBM) and Origin (Microcal) software.
Compound 1 and compound 2 were used at a final concentration of 1 μM in 1% DMSO.

AS-HBE cells = test: Short-circuit current in AS-HBE cells (Test Example 3); type: cell-based, human; conditions: 250 nM
Experimental: AS-HBE is a human bronchial epithelial (HBE) cell line expressing the first 131 nucleotides of CFTR in the antisense direction (antisense CFTR 16HBE14o- cells, HBE-AS; also called AS-HBE). As a result, AS-HBE cells lack CFTR transcripts and lack functional CFTR. However, AS-HBE cells do express functional ClC-2 in a manner identical to the parental cell line, 16HBE14o- cells, from which they were derived. AS-HBE cells were maintained at 37° C. in 5%/95% CO2/O2 in Minimal Essential Medium (MEM; GIBCO/Invitrogen, Carlsbad, Calif.) supplemented with Earl's salt, L-glutamine (GIBCO/Invitrogen), 10% heat-inactivated fetal bovine serum, 100 units/ml penicillin, 100 μg/ml streptomycin sulfate and 400 μg/ml G-418 (GIBCO/Invitrogen). The cells were grown in air-liquid interface on Biocoat inserts (Fisher Scientific, Chicago, Ill.), coated with human plasma fibronectine (GIBCO/Invitrogen) and vitrogen (Cohesion Technologies, Palo Alto, Calif.).
According to the same manner as described in Example 2, Short-circuit current measurements in the AS-HBE cells were carried out. Changes in short-circuit current (ΔIsc) were normalized to the filter area (0.3 cm^2) and reported as ΔIsc/cm^2.
Test compounds were used at a final concentration of 250 nM.

[2] = biological target: T1, recombinant human ClC-2 Chloride Channels (Homo sapiens, UniProt P51788); test: Whole cell patch clamp, ClC-2 transfected HEK cells, current increase (Test Example 4); type: cell-based; conditions: 100 nM, change from control
T1 construct: His; T7; expressed in transfected cells; host or cells: HEK-293 (ATCC), pcDNA3.1, G-418 selected
T1 sequence (P51788 1-898): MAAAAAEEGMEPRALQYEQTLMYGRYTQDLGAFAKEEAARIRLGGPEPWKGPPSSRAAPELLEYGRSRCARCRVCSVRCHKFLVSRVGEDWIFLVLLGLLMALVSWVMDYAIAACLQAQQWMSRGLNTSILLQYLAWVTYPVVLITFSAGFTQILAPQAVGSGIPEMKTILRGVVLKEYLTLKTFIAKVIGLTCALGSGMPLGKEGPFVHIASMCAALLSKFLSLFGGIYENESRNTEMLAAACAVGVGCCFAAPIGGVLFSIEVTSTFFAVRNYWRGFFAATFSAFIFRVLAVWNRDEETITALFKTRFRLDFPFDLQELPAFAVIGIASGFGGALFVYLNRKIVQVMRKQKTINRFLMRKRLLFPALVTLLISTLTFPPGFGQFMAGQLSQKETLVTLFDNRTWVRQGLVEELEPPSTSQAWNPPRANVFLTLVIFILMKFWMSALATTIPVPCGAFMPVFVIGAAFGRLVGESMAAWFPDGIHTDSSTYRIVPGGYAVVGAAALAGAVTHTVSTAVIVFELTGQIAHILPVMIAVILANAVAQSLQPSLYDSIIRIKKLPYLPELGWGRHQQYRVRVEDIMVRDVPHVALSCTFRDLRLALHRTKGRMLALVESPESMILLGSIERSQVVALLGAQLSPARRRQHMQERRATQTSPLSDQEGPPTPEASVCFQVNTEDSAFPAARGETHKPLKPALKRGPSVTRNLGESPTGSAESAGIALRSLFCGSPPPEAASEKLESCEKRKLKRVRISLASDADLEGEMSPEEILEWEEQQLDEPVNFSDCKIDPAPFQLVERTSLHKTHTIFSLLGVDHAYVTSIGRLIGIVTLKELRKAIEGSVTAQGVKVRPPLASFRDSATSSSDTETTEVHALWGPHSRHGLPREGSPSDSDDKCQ
Experimental: According to the same manner as described in Example 1, whole cell patch clamp measurements were carried out.
Test compounds were used at a final concentration of 100 nM.

CCCCC(F)(F)[C@@]1(O)CC[C@H]2[C@@H](CC(=O)[C@@H]2CCCCCCC(=O)O)O1 [Compound 1, (−)-7-[(2R,4aR,5R,7aR)-2-(1,1-difluoropentyl)-2-hydroxy-6-oxoperhydrocyclopenta[b]pyran-5-yl]heptanoic acid]
Effect on Cl currents in non-transfected cells (in words) [1]: did not increase
Cl channel activity [1]: 0.035 ± 0.014 nS/pF
Changes in short-circuit currents (Δlsc) (AS-HBE cells): 4.3 μA/cm^2
Activation of ClC-2 channels ΔpA/pF [2]: 39.8 pA/pF

CC[C@H](C)CC(F)(F)C(=O)CC[C@H]1[C@H](O)CC(=O)[C@@H]1CCCCCCC(=O)O [Compound 2, 13,14-dihydro-15-keto-16,16-difluoro-18(S)-Methyl-PGE1]
Effect on Cl currents in non-transfected cells (in words) [1]: did not increase
Cl channel activity [1]: 0.036 ± 0.010 nS/pF
Changes in short-circuit currents (Δlsc) (AS-HBE cells): 9.0 μA/cm^2
Activation of ClC-2 channels ΔpA/pF [2]: 22.6 pA/pF
